Laboratory results published in patent US10947201B2, “Certain chemical entities, compositions, and methods” (NEUPHARMA, INC., priority 2015, dated 2021).
pIC50: −log10 of the molar value.

Tests used:
BTK = biological target: T1, BTK (Homo sapiens, UniProt Q06187); assay: Z'-LYTE kinase inhibition assay (Invitrogen), BTK; assay type: biochemical; details: for inhibition at 0.1 µM: compound at 100 nM, [ATP] = Km
T1 construct: purchased Invitrogen
Procedure: (§1) Inhibitory activities of compounds against BTK, EGFR and EGFR mutants (EGFR L858R/T790M) were measured by Invitrogen using Z′-LYTE® Method as briefly described in the following.
(§2) Test Compounds are screened in 1% DMSO (final) in the well. For 10 point titrations, 3-fold serial dilutions are conducted from the starting concentration. All ATP Solutions are diluted to a 4× working concentration in Kinase Buffer (50 mM HEPES pH 7.5, 0.01% BRIJ-35, 10 mM MgCl2, 1 mM EGTA). Peptide/Kinase Mixtures are diluted to a 2× working concentration in the appropriate Kinase Buffers as described below.
(v) Peptide/Kinase Mixtures for measurement of BTK:
The 2×BTK/Tyr 01 mixture is prepared in 50 mM HEPES pH 7.5, 0.01% BRIJ-35, 10 mM MgCl2, 1 mM EGTA. The final 10 μL Kinase Reaction consists of 1.04-10.4 ng BTK and 2 μM Tyr 01 in 50 mM HEPES pH 7.5, 0.01% BRIJ-35, 10 mM MgCl2, 1 mM EGTA. After the 1 hour Kinase Reaction incubation, 5 μL of a 1:256 dilution of Development Reagent B is added.
(§3) Reaction starts by 30-second shaking of mixture consisting of 2.5 μL 4× test compound, 5 μL 2× kinase reaction mixture and 2.5 μL 4×ATP Solution on Bar-coded Corning, low volume NBS, black 384-well plate (Corning Cat. #3676). Then the mixture is incubated for 60-minute at room temperature for the kinase reaction, followed by addition of 5 μL of a 1:1024 dilution of development reagent A and 30-second plate shake. The mixture is then incubated for another 60-minute at room temperature for development reaction. Finally fluorescence is read by plate reader. […] The scale utilized in Tables 2 and 3 is as follows: ++ more than 50% inhibition and + less than 50% inhibition.
(§4) To determine IC50 of a compound against EGFR or EGFR mutants, a series of concentrations of the compound were tested for the inhibition. IC50 was calculated by plotting the concentration of compound vs the percentage of inhibition in treated wells using GraphPad Prism 5. […] The scale utilized in Table 4 is as follows: ++ less than 100 nM and + greater than 100 nM.

H1975 cells = assay: MTT cell growth inhibition assay, H1975; assay type: cell-based; details: Homo sapiens, NCI-H1975, H1975 cells (EGFR L858R/T790M), 72 h
Procedure: (§5) Inhibition of cell growth by compounds was measured using MTT assay (Mosmann, T., Journal of Immunological Methods, 1983, 65, 55-63). Tumor cell lines were purchased from ATCC (American Type Culture Collection, Manassas, Va.). All cell lines were maintained in RPMI 1640 (Hyclone) supplemented with 10% fetal bovine serum (FBS, Hyclone), glutamine (2 mM, Hyclone), and antibiotics (penicillin 100 U/mL and streptomycin 50 μg/mL) at 37° C. in a humidified atmosphere of 5% CO2 in air. Taxol (as a positive control, Sigma) and compounds were dissolved in DMSO (Sigma), and the final concentration of DMSO in the medium was 1%. Tumor cells were plated in 96-well plates at densities of about 4000 cells/well of a 96-well plate and allowed to adhere/grow for 24 h. They were then treated with various concentrations of drug for 72 h. 3-(4,5-Dimethylthiazol-2-yl)-2,5-diphenyltetrazolium bromide (MTT, Sigma) was used to determine the number of viable cells at the time of compound addition and the number of cells remaining after 72 h compound exposure. The number of cells remaining after 72 h was compared to the number of viable cells at the time of compound addition by measuring the absorbance at 570 nm, allowing for the calculation of growth inhibition.
(§6) All concentrations of compounds were tested in triplicate and controls were averaged over 4 wells. IC50 was calculated by plotting the concentration of compound vs the percentage of inhibition in treated wells using GraphPad Prism 5.
(§7) Tables 5 show IC50 values of several compounds of the invention in A549, A431, H1299, and H1975 human cancer cells. A549 cells have a mutation on KRAS, H3255 cells have L858R mutation, and H1975 cells have double EGFR mutations (L858R/T790M). The scale utilized in Table 5 is as follows: +++ less than 100 nM; ++ between 100 nM and 500 nM; and + greater than 500 nM.

A549 cells = assay: MTT cell growth inhibition assay, A549; assay type: cell-based; details: Homo sapiens, A549 cells (KRAS mutation), 72 h
Procedure: as §5, §6, §7

A431 cells = assay: MTT cell growth inhibition assay, A431; assay type: cell-based; details: Homo sapiens, A-431, 72 h
Procedure: as §5, §6, §7

EGFR (ErbB1) T790M L858R = biological target: T2, EGFR (ErbB1) T790M L858R (Homo sapiens, UniProt P00533, L858R/T790M); assay: Z'-LYTE kinase inhibition assay (Invitrogen), EGFR L858R/T790M; assay type: biochemical; details: for inhibition at 0.1 µM: compound at 100 nM, [ATP] = Km
T2 construct: purchased Invitrogen
Procedure: as §1, §2
(iv) Peptide/Kinase Mixtures for measurement of EGFR (ErbB1) T790M L858R:
The 2×EGFR (ErbB1) T790M L858R/Tyr 04 mixture is prepared in 50 mM HEPES pH 6.5, 0.01% BRIJ-35, 10 mM MgCl2, 1 mM EGTA, 0.02% NaN3. The final 10 μL Kinase Reaction consists of 0.38-4.22 ng EGFR (ErbB1) T790M L858R and 2 μM Tyr 04 in 50 mM HEPES pH 7.0, 0.01% BRIJ-35, 10 mM MgCl2, 1 mM EGTA, 0.01% NaN3. After the 1 hour Kinase Reaction incubation, 5 μL of a 1:64 dilution of Development Reagent B is added.
as §3, §4

H3255 cells = assay: MTT cell growth inhibition assay, H3255; assay type: cell-based; details: Homo sapiens, NCI-H3255, H3255 cells (L858R mutation), 72 h
Procedure: as §5, §6, §7

EGFR (ErbB1) = biological target: T3, EGFR (ErbB1) (Homo sapiens, UniProt P00533); assay: Z'-LYTE kinase inhibition assay (Invitrogen), EGFR; assay type: biochemical; details: for inhibition at 0.1 µM: compound at 100 nM, [ATP] = Km
T3 construct: purchased Invitrogen
Procedure: as §1, §2
(i) Peptide/Kinase Mixtures for measurement of EGFR (ErbB1):
The 2×EGFR (ErbB1)/Tyr 04 mixture is prepared in 50 mM HEPES pH 7.5, 0.01% BRIJ-35, 10 mM MgCl2, 4 mM MnCl2, 1 mM EGTA, 2 mMDTT. The final 10 μL Kinase Reaction consists of 1.1-5.25 ng EGFR (ErbB1) and 2 μM Tyr 04 in 50 mM HEPES pH 7.5, 0.01% BRIJ-35, 10 mM MgCl2, 2 mM MnCl2, 1 mM EGTA, 1 mM DTT. After the 1 hour Kinase Reaction incubation, 5 μL of a 1:64 dilution of DevelopmentReagent B is added.
as §3, §4

T3 sequence (P00533 25-1210): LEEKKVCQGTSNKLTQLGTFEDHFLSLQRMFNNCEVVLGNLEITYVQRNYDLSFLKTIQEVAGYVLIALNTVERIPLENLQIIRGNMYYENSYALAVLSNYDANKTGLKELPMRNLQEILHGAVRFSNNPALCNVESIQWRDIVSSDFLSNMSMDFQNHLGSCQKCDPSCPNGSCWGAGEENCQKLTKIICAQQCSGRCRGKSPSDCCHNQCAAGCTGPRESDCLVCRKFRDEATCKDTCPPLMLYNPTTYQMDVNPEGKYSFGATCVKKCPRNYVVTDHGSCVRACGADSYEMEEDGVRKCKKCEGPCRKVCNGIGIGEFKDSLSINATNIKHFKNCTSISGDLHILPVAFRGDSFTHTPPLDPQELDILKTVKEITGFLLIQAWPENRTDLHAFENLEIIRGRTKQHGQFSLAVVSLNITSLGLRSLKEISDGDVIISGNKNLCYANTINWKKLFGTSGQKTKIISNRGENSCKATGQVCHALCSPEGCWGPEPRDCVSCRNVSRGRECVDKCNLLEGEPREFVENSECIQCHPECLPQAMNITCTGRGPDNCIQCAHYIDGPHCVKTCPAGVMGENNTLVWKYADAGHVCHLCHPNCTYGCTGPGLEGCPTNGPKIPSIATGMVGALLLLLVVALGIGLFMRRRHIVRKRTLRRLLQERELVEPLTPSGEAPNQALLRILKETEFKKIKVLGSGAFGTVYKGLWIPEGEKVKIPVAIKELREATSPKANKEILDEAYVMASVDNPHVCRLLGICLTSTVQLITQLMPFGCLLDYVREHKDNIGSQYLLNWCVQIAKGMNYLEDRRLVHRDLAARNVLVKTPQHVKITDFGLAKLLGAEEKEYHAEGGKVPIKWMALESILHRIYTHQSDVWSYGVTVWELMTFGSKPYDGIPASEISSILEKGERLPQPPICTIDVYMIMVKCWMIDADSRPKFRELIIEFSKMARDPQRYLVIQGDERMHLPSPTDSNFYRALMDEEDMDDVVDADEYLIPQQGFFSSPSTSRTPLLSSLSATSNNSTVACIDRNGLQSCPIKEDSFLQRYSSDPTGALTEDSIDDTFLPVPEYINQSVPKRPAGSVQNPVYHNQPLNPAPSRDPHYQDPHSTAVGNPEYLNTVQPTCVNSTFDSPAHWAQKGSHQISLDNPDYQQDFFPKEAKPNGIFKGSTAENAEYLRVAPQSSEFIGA
T2 sequence (P00533 25-1210 T790M/L858R): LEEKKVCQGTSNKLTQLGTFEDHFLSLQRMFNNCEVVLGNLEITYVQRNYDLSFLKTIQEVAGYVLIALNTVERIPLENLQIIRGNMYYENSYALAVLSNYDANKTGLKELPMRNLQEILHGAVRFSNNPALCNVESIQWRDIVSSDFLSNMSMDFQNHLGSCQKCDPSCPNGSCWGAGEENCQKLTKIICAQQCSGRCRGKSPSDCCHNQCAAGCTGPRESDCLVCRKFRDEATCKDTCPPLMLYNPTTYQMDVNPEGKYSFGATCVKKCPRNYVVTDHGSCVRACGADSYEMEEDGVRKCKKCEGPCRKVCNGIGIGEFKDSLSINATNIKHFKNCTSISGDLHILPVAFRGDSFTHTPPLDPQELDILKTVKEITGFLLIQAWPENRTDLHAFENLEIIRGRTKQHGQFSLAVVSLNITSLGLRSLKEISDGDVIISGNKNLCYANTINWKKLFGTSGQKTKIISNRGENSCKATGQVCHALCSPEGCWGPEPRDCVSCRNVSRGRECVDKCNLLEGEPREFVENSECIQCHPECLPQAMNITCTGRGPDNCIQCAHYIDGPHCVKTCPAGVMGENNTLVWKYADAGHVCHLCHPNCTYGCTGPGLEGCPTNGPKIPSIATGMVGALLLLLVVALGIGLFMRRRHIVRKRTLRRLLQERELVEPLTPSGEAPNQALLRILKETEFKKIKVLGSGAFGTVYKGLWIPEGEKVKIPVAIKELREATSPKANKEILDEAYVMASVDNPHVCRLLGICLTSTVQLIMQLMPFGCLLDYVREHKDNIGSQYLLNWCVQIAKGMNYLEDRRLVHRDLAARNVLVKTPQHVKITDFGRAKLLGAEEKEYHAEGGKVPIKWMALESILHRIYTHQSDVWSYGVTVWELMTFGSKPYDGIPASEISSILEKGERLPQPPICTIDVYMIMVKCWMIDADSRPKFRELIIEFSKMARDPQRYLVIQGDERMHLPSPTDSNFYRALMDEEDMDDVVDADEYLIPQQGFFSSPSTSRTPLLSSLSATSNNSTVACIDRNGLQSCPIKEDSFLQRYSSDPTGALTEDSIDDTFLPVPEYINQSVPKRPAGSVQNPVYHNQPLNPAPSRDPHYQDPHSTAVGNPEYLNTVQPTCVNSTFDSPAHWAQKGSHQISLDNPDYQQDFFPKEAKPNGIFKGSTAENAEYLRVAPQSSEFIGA
T1 sequence (Q06187 whole entry): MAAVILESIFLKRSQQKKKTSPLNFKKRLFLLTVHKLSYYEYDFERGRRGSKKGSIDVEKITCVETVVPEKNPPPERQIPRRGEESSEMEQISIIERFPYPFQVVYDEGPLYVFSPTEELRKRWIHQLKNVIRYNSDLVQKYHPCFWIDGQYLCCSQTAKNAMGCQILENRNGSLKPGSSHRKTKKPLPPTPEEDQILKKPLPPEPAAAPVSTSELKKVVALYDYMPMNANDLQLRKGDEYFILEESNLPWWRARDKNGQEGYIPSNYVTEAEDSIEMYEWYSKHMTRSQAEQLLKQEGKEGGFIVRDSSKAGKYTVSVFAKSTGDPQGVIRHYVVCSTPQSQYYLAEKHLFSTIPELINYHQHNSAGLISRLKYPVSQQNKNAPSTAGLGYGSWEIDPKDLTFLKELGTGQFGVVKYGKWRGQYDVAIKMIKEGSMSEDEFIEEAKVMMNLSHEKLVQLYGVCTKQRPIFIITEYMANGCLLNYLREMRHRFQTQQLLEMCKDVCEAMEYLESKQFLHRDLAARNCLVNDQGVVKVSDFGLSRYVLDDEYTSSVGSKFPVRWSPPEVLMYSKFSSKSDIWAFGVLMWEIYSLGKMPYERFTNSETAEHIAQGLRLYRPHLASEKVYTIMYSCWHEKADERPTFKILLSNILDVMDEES

In the case of C=CC(=O)Nc1cc(Nc2ncc3cccc(-c4cccc(F)c4)c3n2)ccc1N1CCC(N(C)C)C1 (stereo not drawn) [Example C024, N-(2-(3-(dimethylamino)pyrrolidin-1-yl)-5-((8-(3-fluorophenyl)quinazolin-2-yl)amino)phenyl)acrylamide], the inhibition at 0.1 µM (BTK) was over 50%, the pIC50 (H1975 cells) was over 7.00 and the pIC50 (A549 cells) was 6.30 to 7.00. The pIC50 (A431 cells) was over 7.00.
Compound C=CC(=O)Nc1cc(Nc2ncc3cccc(OC)c3n2)ccc1N(C)CCN(C)C [Example C003, N-(2-((2-(dimethylamino)ethyl)(methyl)amino)-5-((8-methoxyquinazolin-2-yl)amino)phenyl)acrylamide] has an inhibition at 0.1 µM (BTK) of under 50%, a pIC50 (H1975 cells) of over 7.00 and an inhibition at 0.0137 µM (EGFR (ErbB1) T790M L858R; compound at 13.7 nM, 10 μM of ATP) of under 50%. It also gave an inhibition at 0.1 µM (EGFR (ErbB1) T790M L858R) of under 50%, a pIC50 (A549 cells) of under 6.30 and a pIC50 (A431 cells) of 6.30 to 7.00.
In the case of C=CC(=O)Nc1cc(Nc2ncc3cccc(-c4cccc(F)c4)c3n2)ccc1N(C)CCN(C)C [Example C006, N-(2-((2-(dimethylamino)ethyl)(methyl)amino)-5-((8-(3-fluorophenyl)quinazolin-2-yl)amino)phenyl)acrylamide], the pIC50 (H3255 cells) was over 7.00, the inhibition at 0.1 µM (BTK) was over 50% and the pIC50 (H1975 cells) was over 7.00. It also gave a pIC50 (EGFR (ErbB1)) of over 7.00, an inhibition at 0.1 µM (EGFR (ErbB1)) of over 50% and a pIC50 (EGFR (ErbB1) T790M L858R) of over 7.00. For the same compound, the inhibition at 0.1 µM (EGFR (ErbB1) T790M L858R) was over 50%, the pIC50 (A549 cells) was over 7.00 and the pIC50 (A431 cells) was over 7.00.
C=CC(=O)Nc1cc(Nc2ncc3cccc(-c4ccccc4)c3n2)ccc1N(C)CCN(C)C [Example C004, N-(2-((2-(dimethylamino)ethyl)(methyl)amino)-5-((8-phenylquinazolin-2-yl)amino)phenyl)acrylamide] showed a pIC50 (H3255 cells) of over 7.00, a pIC50 (BTK) of over 7.00 and an inhibition at 0.1 µM (BTK) of over 50%. It also gave a pIC50 (H1975 cells) of over 7.00, a pIC50 (EGFR (ErbB1)) of under 7.00 and an inhibition at 0.1 µM (EGFR (ErbB1)) of over 50%. The pIC50 (EGFR (ErbB1) T790M L858R) was over 7.00, the inhibition at 0.1 µM (EGFR (ErbB1) T790M L858R) was over 50% and the pIC50 (A549 cells) was over 7.00. The pIC50 (A431 cells) was over 7.00.
C=CC(=O)Nc1cc(Nc2ncc3cccc(-c4cccc(F)c4)c3n2)c(OC)cc1OC1CCN(C)C1 (stereo not drawn) [Example C019, N-(5-((8-(3-fluorophenyl)quinazolin-2-yl)amino)-4-methoxy-2-((1-methylpyrrolidin-3-yl)oxy)phenyl)acrylamide] gave an inhibition at 0.1 µM (BTK) of over 50%, a pIC50 (H1975 cells) of over 7.00 and an inhibition at 0.1 µM (EGFR (ErbB1)) of over 50%. It also gave an inhibition at 0.1 µM (EGFR (ErbB1) T790M L858R) of over 50% and a pIC50 (A549 cells) of 6.30 to 7.00.
C=CC(=O)Nc1cc(Nc2ncc3cccc(-c4cccc(F)c4)c3n2)c(OC)cc1N(C)CCN(C)C [Example C018, N-(2-((2-(dimethylamino)ethyl)(methyl)amino)-5-((8-(3-fluorophenyl)quinazolin-2-yl)amino)-4-methoxyphenyl)acrylamide] showed an inhibition at 0.1 µM (BTK) of over 50%, a pIC50 (H1975 cells) of over 7.00 and an inhibition at 0.1 µM (EGFR (ErbB1)) of over 50%. It also gave an inhibition at 0.1 µM (EGFR (ErbB1) T790M L858R) of over 50% and a pIC50 (A549 cells) of 6.30 to 7.00.
